The target of the experiment is T1, Lysosomal acid glucosylceramidase (Homo sapiens, UniProt P04062).
T1 sequence (P04062 whole entry): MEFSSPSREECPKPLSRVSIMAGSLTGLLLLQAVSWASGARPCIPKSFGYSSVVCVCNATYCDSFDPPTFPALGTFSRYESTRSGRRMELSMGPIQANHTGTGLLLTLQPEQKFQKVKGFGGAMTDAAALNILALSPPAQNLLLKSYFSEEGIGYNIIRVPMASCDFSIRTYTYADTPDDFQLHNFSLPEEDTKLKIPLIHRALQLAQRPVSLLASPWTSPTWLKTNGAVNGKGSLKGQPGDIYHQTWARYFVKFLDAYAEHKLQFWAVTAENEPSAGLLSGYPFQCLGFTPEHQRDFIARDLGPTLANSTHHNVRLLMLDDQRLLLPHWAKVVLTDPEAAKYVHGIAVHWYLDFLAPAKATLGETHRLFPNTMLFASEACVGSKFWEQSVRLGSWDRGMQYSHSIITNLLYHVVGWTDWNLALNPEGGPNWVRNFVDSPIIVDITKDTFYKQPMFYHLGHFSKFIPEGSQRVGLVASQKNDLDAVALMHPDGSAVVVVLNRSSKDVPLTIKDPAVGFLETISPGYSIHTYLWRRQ
Nature of the experiment: Chaperone activity at GCase in wild-type human fibroblasts assessed as increase in GPN-induced reduction of calcium release using Fluo-8AM based fluorescence assay.

What is called EC50 is the midpoint of the concentration-response curve. As for `C/C=C/c1ccccc1C(CCCC)C(=O)c1ccc(OCCN(C)C)cc1` (centres undefined), the EC50 was 1100 nM.

As for `CCCCC(C(=O)c1ccc(OCCN(C)C)cc1)c1ccccc1C(C)C` (centres undefined), the EC50 came to 700 nM. The result for `CC(C)CC(C(=O)c1ccc(OCCN(C)C)cc1)c1ccccc1C(C)C` (centres undefined) reads 1100 nM; that for `CC(C)CC(C(=O)c1ccc(OCCN(C)C)cc1)c1ccccc1C1CC1` (centres undefined), 1100 nM.

Source of the values: BindingDB's records for doi:10.1016/j.bmcl.2019.126806 (Temple University, 2020).
